Like-named read-outs stand apart in the source and are kept apart here.

In test [1] the target is T1, serotonine transporter (SERT) receptor (Homo sapiens, UniProt P31645).
T1 construct: expressed in transfected cells; host or cells: CHO cells
Briefly: Binding assay SERT (h), [3H]imipramine, CHO cells. To be noted: read-out: SERT [%]. Put shortly:
(§1)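 Radioligand displacement with compounds at 1×10^−6 M, detected by scintillation counting. Specific binding taken as total minus non-specific binding measured with excess unlabelled ligand.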

The target of test [2] is T2, muscarinic M3 receptor (Homo sapiens, UniProt P20309).
T2 construct: expressed in transfected cells; host or cells: CHO cells
T2 sequence (P20309 whole entry): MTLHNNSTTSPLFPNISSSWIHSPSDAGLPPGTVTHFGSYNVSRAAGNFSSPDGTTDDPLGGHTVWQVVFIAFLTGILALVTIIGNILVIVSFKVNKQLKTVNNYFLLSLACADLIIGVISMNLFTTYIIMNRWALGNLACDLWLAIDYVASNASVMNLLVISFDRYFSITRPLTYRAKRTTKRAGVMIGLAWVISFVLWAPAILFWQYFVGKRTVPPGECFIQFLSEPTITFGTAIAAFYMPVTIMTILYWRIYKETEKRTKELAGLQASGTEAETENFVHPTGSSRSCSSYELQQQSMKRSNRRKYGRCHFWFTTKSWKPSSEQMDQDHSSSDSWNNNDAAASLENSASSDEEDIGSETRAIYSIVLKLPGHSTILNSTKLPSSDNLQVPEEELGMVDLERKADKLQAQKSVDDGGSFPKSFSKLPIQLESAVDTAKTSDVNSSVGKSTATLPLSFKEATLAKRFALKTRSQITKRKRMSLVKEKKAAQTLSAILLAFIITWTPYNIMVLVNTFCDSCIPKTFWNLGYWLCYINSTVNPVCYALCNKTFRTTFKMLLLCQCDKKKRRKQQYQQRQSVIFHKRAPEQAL
Briefly: Binding assay M3 (h), [3H]4-DAMP, CHO cells. To be noted: read-out: M3 [%]. The essentials: as §1

Test [3] has as its target T3, dopaminergic D2 receptor (Homo sapiens, UniProt P14416). Briefly: Cellular functional assay, dopaminergic D2 receptor (agonism/antagonism). In kind it is cell-based. On the procedure: (§2) The compounds were tested at the concentration of 1×10^−6M.
(§3) In the Tables ag refers to agonism, and antag to antagonism).
Target sequence in this assay (P14416 whole entry): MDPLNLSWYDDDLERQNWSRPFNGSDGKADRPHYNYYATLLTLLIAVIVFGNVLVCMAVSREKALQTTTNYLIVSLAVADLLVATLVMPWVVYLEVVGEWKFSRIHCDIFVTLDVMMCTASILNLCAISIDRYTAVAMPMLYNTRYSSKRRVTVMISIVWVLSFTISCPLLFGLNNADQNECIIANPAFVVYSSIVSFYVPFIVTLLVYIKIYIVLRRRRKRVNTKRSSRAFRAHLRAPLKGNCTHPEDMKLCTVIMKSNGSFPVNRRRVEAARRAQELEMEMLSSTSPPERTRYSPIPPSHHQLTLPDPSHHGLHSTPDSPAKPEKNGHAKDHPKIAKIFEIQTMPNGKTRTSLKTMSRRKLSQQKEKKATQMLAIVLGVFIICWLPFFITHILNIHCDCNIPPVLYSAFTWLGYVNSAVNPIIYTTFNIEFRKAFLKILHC

In test [4] the target is dopaminergic D3 receptor (Homo sapiens, UniProt P35462). Briefly: Cellular functional assay, dopaminergic D3 receptor (agonism/antagonism). The format is cell-based. As for the experimental part: as §2, §3
dopaminergic D3 receptor, sequence (P35462 whole entry): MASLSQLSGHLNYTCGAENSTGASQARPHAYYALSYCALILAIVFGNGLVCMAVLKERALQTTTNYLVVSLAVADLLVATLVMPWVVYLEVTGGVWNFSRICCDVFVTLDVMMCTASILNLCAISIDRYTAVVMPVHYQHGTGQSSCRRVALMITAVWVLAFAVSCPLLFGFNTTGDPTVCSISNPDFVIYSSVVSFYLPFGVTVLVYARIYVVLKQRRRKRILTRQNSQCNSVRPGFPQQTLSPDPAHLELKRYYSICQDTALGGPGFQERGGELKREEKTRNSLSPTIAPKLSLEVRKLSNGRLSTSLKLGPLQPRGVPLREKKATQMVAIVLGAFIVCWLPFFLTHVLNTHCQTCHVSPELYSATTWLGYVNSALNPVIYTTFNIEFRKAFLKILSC
The target of test [5] is T4, serotoninergic 5-HT2A receptor (Homo sapiens, UniProt P28223). The experiment in a line: Cellular functional assay, serotoninergic 5-HT2A receptor (agonism/antagonism). The format is cell-based. To be noted: for activation at 1 µM: read-out: 5-HT2A -ag [%]; for inhibition at 1 µM: read-out: 5-HT2A -antag [%]. Put shortly: (§4)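 Human receptors tested in cell-based functional format for both agonist and antagonist modes. Single compound concentration of 1×10^−6M.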
T4 sequence (P28223 whole entry): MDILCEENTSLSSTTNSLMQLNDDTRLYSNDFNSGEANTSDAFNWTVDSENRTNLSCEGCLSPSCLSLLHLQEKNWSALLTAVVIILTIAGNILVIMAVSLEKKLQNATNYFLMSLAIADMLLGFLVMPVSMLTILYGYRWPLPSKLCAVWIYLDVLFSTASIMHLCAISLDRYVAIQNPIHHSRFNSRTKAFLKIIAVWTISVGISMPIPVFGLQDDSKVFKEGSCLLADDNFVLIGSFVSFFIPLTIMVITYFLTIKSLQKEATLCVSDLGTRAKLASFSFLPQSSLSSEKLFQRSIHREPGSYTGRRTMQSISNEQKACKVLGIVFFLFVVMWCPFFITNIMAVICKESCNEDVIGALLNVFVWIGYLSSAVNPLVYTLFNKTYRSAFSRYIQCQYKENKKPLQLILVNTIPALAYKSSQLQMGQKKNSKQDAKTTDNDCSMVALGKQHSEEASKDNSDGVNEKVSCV

Test [6] deals with serotoninergic 5-HT6 receptor (Homo sapiens, UniProt P50406). Briefly: Cellular functional assay, serotoninergic 5-HT6 receptor (agonism/antagonism). The format is cell-based. As to conditions: for activation at 1 µM: read-out: 5-HT6-ag [%]; for inhibition at 1 µM: read-out: 5-HT6-antag. [%]. On the procedure:
as §2, §3

Test [7] concerns the target serotoninergic 5-HT7 receptor (Homo sapiens, UniProt P34969). Briefly: Cellular functional assay, serotoninergic 5-HT7 receptor (agonism/antagonism). To be noted: for activation at 1 µM: read-out: 5-HT7-ag [%]; for inhibition at 1 µM: read-out: 5-HT7-antag. [%]. The format is cell-based. On the procedure: as §2, §3
Test [8] concerns the target T5, adrenergic α1A receptor (Homo sapiens, UniProt P35348).
T5 sequence (P35348 1-466): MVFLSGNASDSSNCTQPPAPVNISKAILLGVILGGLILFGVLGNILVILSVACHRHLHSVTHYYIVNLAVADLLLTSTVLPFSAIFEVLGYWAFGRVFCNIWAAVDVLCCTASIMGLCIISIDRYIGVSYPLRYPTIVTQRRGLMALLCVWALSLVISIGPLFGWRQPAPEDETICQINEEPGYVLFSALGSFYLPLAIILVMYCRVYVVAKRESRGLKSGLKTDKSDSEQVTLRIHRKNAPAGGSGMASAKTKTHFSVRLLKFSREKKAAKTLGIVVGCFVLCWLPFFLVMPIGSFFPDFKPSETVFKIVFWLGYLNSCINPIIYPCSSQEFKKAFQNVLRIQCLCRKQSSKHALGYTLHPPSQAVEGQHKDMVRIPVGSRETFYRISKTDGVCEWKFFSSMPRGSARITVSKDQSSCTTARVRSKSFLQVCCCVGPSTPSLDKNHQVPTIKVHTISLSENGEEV
Briefly: Cellular functional assay, adrenergic α1A receptor (agonism/antagonism). The format is cell-based. As to conditions: for activation at 1 µM: read-out: α1A -ag [%]; for inhibition at 1 µM: read-out: α1A -antag. [%]. Put shortly: as §4

Test [9] addresses T6, adrenergic α2C receptor (Homo sapiens, UniProt P18825).
T6 sequence (P18825 1-462): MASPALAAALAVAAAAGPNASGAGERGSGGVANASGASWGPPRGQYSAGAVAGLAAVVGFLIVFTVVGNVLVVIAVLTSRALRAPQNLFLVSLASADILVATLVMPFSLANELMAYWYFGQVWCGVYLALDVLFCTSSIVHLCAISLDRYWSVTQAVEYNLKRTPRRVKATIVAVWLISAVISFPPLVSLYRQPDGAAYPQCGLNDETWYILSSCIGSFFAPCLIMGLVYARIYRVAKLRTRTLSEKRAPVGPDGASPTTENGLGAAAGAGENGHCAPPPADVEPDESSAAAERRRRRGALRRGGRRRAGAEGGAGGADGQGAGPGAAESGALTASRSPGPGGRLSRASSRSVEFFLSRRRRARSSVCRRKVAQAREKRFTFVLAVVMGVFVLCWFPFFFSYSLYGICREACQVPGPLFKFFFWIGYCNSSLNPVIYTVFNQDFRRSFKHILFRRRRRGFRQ
Briefly: Cellular functional assay, adrenergic α2C receptor (agonism/antagonism). To be noted: for activation at 1 µM: read-out: α2C −ag [%]; for inhibition at 1 µM: read-out: α2C −antag. [%]. The format is cell-based. On the procedure:
as §2, §3

Test [10] addresses histaminergic H1 receptor (Homo sapiens, UniProt P35367). Briefly: Cellular functional assay, histaminergic H1 receptor (agonism/antagonism). The format is cell-based. To be noted: for activation at 1 µM: read-out: H1 -ag [%]; for inhibition at 1 µM: read-out: H1 -antag. [%]. On the procedure:
as §2, §3

For test [11], the target named is T6, adrenergic α2C receptor. The experiment in a line: Binding assay α2C (h), [3H]RX 821002, CHO cells. The arrangement: expressed in transfected cells; host or cells: CHO cells. To be noted: read-out: α2C [%]. Put shortly:
as §1

The target in test [12] is T3, dopaminergic D2 receptor. Briefly: Binding assay D2S (h), [3H]methyl-spiperone, HEK-293 cells. To be noted: read-out: D2 [%]. The arrangement: expressed in transfected cells; host or cells: HEK-293 cells. Put shortly: as §1
Target sequence in this assay (P14416 1-414 isoform P14416-2): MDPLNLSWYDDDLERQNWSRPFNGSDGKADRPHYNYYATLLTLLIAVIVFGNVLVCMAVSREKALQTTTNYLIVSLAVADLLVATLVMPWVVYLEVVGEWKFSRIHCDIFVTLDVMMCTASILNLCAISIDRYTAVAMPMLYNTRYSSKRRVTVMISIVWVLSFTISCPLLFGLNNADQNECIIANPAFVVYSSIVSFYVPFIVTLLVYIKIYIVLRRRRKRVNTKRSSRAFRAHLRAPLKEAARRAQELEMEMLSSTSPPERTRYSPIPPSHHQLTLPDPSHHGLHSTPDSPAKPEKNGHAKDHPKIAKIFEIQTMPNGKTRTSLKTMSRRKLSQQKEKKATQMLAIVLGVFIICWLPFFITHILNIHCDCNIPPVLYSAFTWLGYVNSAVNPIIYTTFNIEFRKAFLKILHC
Test [13] addresses T4, serotoninergic 5-HT2A receptor. Briefly: Binding assay 5-HT2A (h), [3H]ketanserin, HEK-293 cells. To be noted: read-out: 5-HT2A. More on the design: expressed in transfected cells; host or cells: HEK-293 cells. The essentials:
as §1

[14] abbreviates: HEK293; agonist effect, percent of control specific agonist response (3 μM dopamine for control); 1×10^−6 M; D2S (h), HEK-293 cells; read-out: D2-ag [%].
Setting [15] is: HEK293; read-out: D2-antag. [%].
Setting [16] is: agonist effect, percent of control specific agonist response (300 nM dopamine for control); 1×10^−6 M; D3 (h), CHO cells; read-out: D3-ag [%].
The mark [17] stands for this setting: agonist effect, percent of control specific agonist response, compounds tested at 1×10^−6M.

serotoninergic 5-HT6 receptor, sequence (P50406 whole entry): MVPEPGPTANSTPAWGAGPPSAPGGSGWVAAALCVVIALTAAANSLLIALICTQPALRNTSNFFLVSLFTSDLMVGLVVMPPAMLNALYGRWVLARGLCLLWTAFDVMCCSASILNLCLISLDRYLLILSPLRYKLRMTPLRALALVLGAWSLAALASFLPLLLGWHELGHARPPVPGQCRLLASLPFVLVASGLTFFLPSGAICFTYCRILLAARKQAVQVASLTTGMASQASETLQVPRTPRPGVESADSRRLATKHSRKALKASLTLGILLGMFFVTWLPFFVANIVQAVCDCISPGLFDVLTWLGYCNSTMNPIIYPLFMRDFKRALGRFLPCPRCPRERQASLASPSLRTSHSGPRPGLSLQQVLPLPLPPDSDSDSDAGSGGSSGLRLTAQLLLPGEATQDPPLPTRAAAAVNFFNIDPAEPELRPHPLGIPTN
histaminergic H1 receptor, sequence (P35367 whole entry): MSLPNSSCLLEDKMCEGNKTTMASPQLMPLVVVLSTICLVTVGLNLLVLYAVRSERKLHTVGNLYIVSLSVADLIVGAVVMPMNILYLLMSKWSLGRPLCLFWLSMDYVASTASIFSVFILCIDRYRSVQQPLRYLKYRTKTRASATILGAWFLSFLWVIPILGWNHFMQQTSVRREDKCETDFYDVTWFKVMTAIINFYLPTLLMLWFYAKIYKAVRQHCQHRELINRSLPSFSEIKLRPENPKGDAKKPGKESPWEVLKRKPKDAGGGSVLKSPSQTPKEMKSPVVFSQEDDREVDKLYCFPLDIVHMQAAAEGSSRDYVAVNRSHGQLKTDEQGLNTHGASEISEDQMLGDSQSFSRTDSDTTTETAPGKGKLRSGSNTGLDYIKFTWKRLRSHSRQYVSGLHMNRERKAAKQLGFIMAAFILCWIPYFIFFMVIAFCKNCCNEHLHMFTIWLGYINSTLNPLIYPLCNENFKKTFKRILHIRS
T1 sequence (P31645 whole entry): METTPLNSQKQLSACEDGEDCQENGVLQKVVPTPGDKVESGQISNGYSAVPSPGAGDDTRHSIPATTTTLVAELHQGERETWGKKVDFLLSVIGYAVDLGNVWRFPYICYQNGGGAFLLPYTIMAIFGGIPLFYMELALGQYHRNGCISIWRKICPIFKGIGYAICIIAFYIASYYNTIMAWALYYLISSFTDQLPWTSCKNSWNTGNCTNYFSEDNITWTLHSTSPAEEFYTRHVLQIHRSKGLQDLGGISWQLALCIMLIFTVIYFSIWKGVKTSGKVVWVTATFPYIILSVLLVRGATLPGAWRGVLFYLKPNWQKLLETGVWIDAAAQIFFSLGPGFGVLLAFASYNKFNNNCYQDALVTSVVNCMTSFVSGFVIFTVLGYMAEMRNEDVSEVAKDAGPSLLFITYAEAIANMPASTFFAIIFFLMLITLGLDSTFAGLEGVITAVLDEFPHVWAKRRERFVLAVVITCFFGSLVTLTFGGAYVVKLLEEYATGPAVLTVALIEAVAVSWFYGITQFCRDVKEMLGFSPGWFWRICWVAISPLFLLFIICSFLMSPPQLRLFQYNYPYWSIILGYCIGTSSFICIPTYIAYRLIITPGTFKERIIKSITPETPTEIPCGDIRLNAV
serotoninergic 5-HT7 receptor, sequence (P34969 whole entry): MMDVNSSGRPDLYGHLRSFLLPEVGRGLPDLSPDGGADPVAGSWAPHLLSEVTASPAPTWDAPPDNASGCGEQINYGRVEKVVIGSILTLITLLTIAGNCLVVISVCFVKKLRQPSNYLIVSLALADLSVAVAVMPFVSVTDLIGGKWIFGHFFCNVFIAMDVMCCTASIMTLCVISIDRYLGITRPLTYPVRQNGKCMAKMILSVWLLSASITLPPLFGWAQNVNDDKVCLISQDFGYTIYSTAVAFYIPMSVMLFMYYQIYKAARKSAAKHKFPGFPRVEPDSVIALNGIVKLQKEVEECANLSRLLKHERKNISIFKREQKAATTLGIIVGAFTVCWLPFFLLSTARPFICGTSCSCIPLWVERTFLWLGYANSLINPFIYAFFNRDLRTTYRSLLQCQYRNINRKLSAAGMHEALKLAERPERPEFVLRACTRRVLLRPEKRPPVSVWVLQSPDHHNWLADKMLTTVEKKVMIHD

Turning to `O=c1[nH]c2ccc(S(=O)(=O)NCCCN3CCN(c4nsc5ccccc45)CC3)cc2o1` [Compound 8, N-(3-(4-(1,2-Benzothiazol-3-yl)piperazin-1-yl)propyl)-2-oxo-3H-1,3-benzoxazole-6-sulphonamide], the inhibition at 1 µM in test [1] was 63%; in test [2], -11%; in test [3] (setting [15]), 85%; in [4] (CHO; read-out: D3-antag. [%]) it was 73%; in test [5] it was 99%; in test [6] it was 64%. For the same molecule, the inhibition at 1 µM is 82% in [7]; 100% in test [8]; 1% in test [9]; 98% in test [10]; 93% in [11]; 98% in test [12]. Further, the inhibition at 1 µM in [13] was 100%. Also, the activation at 1 µM in test [3] (setting [14]) was 7%; in [4] (setting [16]), -24%; in [5], -2%; in test [6] (setting [17]) it was -1%; in [7] (setting [17]) it was -1%; in test [8] (setting [17]), 0%. The activation at 1 µM is -16% in test [9] (setting [17]) and 1% in test [10] (setting [17]).

Take `O=S(=O)(NCCCCN1CCN(c2nsc3ccccc23)CC1)c1ccc2ccccc2c1` [Compound 2, N-(4-(4-(1,2-Benzothiazol-3-yl)piperazin-1-yl)butyl)naphthalene-2-sulphonamide]: the inhibition at 1 µM amounted to 69% in [1]; 17% in test [2]; 97% in test [3] (HEK293, read-out: D2-antag. [%]); 81% in test [4] (CHO, read-out: D3-antag. [%]); 102% in [5]; 28% in test [6]. The inhibition at 1 µM amounted to 80% in [7]; 100% in [8]; 30% in test [9]; 48% in test [10]; 101% in test [11]; 98% in test [12]. Further, the inhibition at 1 µM in [13] worked out at 100%. In addition, the activation at 1 µM in test [3] (HEK293, read-out: D2-ag [%]) is 2%; in test [4] (CHO, read-out: D3-ag [%]), -15%; in [5] it was 2%; in [6], 2%; in test [7], -1%; in test [8], 0%. Besides, the results for the activation at 1 µM in test [9] and in [10] were -8% and -1%, respectively.

Consider `Cc1cccc(S(=O)(=O)NCCCN2CCN(c3nsc4ccccc34)CC2)c1` [Compound 7, N-(3-(4-(1,2-Benzothiazol-3-yl)piperazin-1-yl)propyl)-3-methylbenzenesulphonamide], for which the inhibition at 1 µM in test [1] was 88%; in test [2], 13%; in test [3] (setting [15]), 91%; in [4] (CHO; read-out: D3-antag. [%]) it was 66%; in test [5] it was 100%; in test [6], 65%. Moreover, the inhibition at 1 µM in test [7] stood at 98%; in test [8], 100%; in test [9], 2%; in test [10] it was 70%; in test [11], 96%; in test [12], 95%. Further, the inhibition at 1 µM in test [13] came out at 100%. In addition, the activation at 1 µM in test [3] (setting [14]) is 0%; in test [4] (setting [16]) it was -21%; in test [5] it was 0%; in [6] (setting [17]), 1%; in [7] (setting [17]), -1%; in [8] (setting [17]), 0%. In addition, the activation at 1 µM in [9] (setting [17]) was -6%; in [10] (setting [17]) it was 1%.

On to `O=S(=O)(NCCCCN1CCN(c2nsc3ccccc23)CC1)c1csc2ccccc12` [Compound 240, N-[4-[4-(1,2-Benzothiazol-3-yl)piperazin-1-yl]butyl]benzothiophene-3-sulphonamide], for which the inhibition at 1 µM in [1] amounted to 46%; in test [2], 15%; in [3] (setting [15]), 83%; in test [4] (CHO; read-out: D3-antag. [%]), 72%; in test [5] it was 93%; in test [6] it was 71%. Moreover, the inhibition at 1 µM was determined as 98% in [7]; 100% in [8]; 35% in test [9]; 69% in [10]; 100% in test [11]; 101% in test [12]. Also, the inhibition at 1 µM in test [13] stood at 101%. The activation at 1 µM in test [3] (setting [14]) was 3%; in test [4] (setting [16]), 8%; in test [5] it was -3%; in [6] (setting [17]) it was -2%; in test [7] (setting [17]) it was -2%; in test [8] (setting [17]), 0%. Further, the activation at 1 µM in test [9] (setting [17]) turned out to be 13%; in test [10] (setting [17]), 0%.

For the molecule `Cc1c(S(=O)(=O)NCCCN2CCC(c3noc4cc(F)ccc34)CC2)sc2ccc(F)cc12` [Compound 102, 5-Fluoro-N-[3-[4-(6-fluoro-1,2-benzoxazol-3-yl)piperidin-1-yl]propyl]-3-methylbenzothiophene-2-sulphonamide], the inhibition at 1 µM in test [1] stood at 38%; in test [2], 18%; in test [3] (setting [15]), 85%; in [4] (CHO; read-out: D3-antag. [%]) it was 83%; in test [5], 99%; in test [6], 82%. Also, the inhibition at 1 µM amounted to 94% in [7]; 100% in test [8]; 14% in test [9]; 48% in [10]; 101% in test [11]; 100% in test [12]. In addition, in test [13], the inhibition at 1 µM turned out to be 101%. Also, the activation at 1 µM in test [3] (setting [14]) is 1%; in test [4] (setting [16]) it was 4%; in test [5] it was -2%; in [6] (setting [17]), -1%; in [7] (setting [17]), -2%; in test [8] (setting [17]), 0%. The results for the activation at 1 µM in test [9] (setting [17]) and in test [10] (setting [17]) were -7% and 0%, respectively.

These data come from US8822517B2, “Arylosulfonamides for the treatment of CNS diseases” (Adamed SP. Z O.O., priority 2010, dated 2014).
